Experimental data from article PMC5431558, “Expression proteomics study to determine metallodrug targets and optimal drug combinations” (Scientific Reports, 2017).

Molecular target: T1, MAT2A (S-adenosylmethionine synthase isoform type-2) (Homo sapiens, UniProt P31153)
T1 construct: Recombinant human MAT2A (Addgene plasmid #53648), expressed in E. coli BL21 (DE3) Rosetta
Assay: MAT2A enzymatic assay with pre-incubation, phosphate colorimetric readout
Assay type: biochemical

T1 sequence (P31153 whole entry, canonical isoform): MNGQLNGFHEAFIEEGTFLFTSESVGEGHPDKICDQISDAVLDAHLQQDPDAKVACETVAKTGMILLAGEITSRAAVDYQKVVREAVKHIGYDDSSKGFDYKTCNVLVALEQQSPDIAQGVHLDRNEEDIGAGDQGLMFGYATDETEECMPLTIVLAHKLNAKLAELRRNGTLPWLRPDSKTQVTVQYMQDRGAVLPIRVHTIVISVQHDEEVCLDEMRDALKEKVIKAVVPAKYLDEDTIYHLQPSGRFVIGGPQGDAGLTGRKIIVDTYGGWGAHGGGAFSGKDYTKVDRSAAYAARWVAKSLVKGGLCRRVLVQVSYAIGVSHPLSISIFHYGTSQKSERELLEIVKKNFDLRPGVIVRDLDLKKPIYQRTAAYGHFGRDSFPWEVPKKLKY

**Q.** `C1N2CN3CN1CP(C2)C3.Cc1ccccc1.[Cl][Ru][Cl]` [RAPTA-T] was tested. Which IC50 did it give?
**A.** Its IC50 is 107 ± 13 µM.
